Test results taken from PMC6112128, “Discovery and characterization of the tubercidin biosynthetic pathway from Streptomyces tubercidicus NBRC 13090” (Microbial Cell Factories, 2018).

Columns and labels:
TubE = biological target: T1, TubE (Streptomyces tubercidicus, UniProt A0A384YVR8); test: HPLC and LC-MS product detection; product NMR; assay type: biochemical; details: 1 mM CDG, 2 mM PRPP, 5 mM MgCl2, 1 mM DTT, 100 mM PBS pH 7.5, 30 °C, 8 h
T1 construct: gene Stube_10250; full-length, 194 aa, His6-tagged (pET28a NdeI-EcoRI), E. coli Rosetta (DE3)/pLysS
T1 sequence (A0A384YVR8 1-194): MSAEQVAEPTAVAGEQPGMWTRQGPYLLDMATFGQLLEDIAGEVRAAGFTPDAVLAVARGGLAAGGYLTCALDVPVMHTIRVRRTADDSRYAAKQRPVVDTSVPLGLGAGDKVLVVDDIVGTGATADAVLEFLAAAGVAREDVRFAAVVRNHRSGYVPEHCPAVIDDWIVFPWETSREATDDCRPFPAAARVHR

TubD = biological target: T2, TubD (Streptomyces tubercidicus, UniProt A0A384YXG2); test: LC-MS detection of IMP; assay type: biochemical; details: 1 mM NADPH, 1 mM GMP, 50 mM KCl, 1 mM DTT, 2 mM EDTA, 100 mM Tris-HCl pH 7.5, 30 °C, 4 h
T2 construct: gene Stube_10260; full-length, 385 aa, His6-tagged (pET28a NdeI-EcoRI), E. coli Rosetta (DE3)/pLysS
T2 sequence (A0A384YXG2 1-385): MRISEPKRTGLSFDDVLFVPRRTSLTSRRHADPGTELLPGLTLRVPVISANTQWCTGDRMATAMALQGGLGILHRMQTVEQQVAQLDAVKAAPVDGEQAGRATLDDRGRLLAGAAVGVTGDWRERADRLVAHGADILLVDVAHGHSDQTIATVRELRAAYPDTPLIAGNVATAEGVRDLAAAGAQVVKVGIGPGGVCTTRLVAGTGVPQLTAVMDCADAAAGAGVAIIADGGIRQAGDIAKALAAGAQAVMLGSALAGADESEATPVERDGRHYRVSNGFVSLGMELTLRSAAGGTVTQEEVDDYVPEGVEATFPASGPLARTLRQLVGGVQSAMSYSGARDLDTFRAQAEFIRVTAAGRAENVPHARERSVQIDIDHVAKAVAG

| SMILES | HPLC and LC-MS product detection; product NMR (TubE) | LC-MS detection of IMP (TubD) |
| --- | --- | --- |
| Nc1nc2[nH]cc(C(=O)O)c2c(=O)[nH]1 [CDG] | all of the data demonstrate that TubE functions as a CDG-specific phosphoribosyltransferase | – |
| NC(=O)C1=CN([C@@H]2O[C@H](COP(=O)(O)OP(=O)(O)OC[C@H]3O[C@@H](n4cnc5c(N)ncnc54)[C@H](OP(=O)(O)O)[C@@H]3O)[C@@H](O)[C@H]2O)C=CC1 [NADPH] | – | this cofactor could not replace NADPH to supply reducing equivalents for the TubD reaction |
| O=P(O)(O)OC[C@H]1O[C@H](OP(=O)(O)OP(=O)(O)O)[C@H](O)[C@@H]1O [PRPP] | HPLC profile of the TubE reaction using PRPP and CDG as substrates | – |
